SMILES strings stand for the structures. Some results are limits rather than exact numbers.

In general, IC50 refers to the concentration that gives 50% inhibition.

For data set [1], the system named is KYSE-30. As to the kind of experiment: cells. The conditions noted are these: Homo sapiens, KYSE-30, 48 h.
Description: Antiproliferative activity against human KYSE-30 cells assessed as inhibition of cell proliferation incubated for 48 hrs by MTT assay
Data set [2] relates to MGC-803. As to the kind of experiment: Antiproliferative activity against human MGC-803 cells assessed as inhibition of cell proliferation incubated for 48 hrs by MTT assay. In kind it is functional, cell-based. The conditions noted are these: MGC-803, 48 h. On the technique in general: Tetrazolium assays rely on reduction of a dye to a coloured formazan, in cell work by metabolically active cells.

Data set [3] concerns HCT-116. As to the kind of experiment: cells. The conditions noted are these: Homo sapiens, HCT-116, 48 h.
Description: Antiproliferative activity against human HCT-116 cells assessed as inhibition of cell proliferation incubated for 48 hrs by MTT assay
Data set [4] in a line: Toxicity in female BALB/c-nu nude mouse xenografted with human KYSE-30 cells assessed as effect on body weight at 6 to 12 mg/kg, ip administered for 15 days. The conditions noted are these: in vivo, 360 h, dose 6-12 mg/kg, time 15 day. The data set is classed as organism-based.
Data set [5] can be described thus: Cytotoxicity against HUVEC cells assessed as inhibition of cell growth incubated for 48 hrs by MTT assay. In kind it is toxicity, cell-based. The conditions noted are these: human.

As for `COc1ccccc1-c1[nH]nnc1-c1ccnc2ccccc12`, the IC50 in data set [1], in data set [2] and in data set [3] was more than 10000 nM each time.

Turning to `c1ccc2c(-c3[nH]nnc3-c3ccc4c(c3)CCO4)ccnc2c1`, the results for the IC50 in data set [1], in data set [2] and in data set [3] were 6370 nM, 5690 nM and more than 10000 nM, respectively.

Take `COc1ccc(-c2cn[nH]c2-c2ccnc3ccccc23)cc1[N+](=O)[O-]`: the IC50 in data set [1] was more than 2510 nM; in data set [2] it was 1980 nM; in data set [3] it was more than 10000 nM.

In the case of `COc1cccc(-c2cnoc2-c2ccnc3ccccc23)c1`, the IC50 in data set [1] was found to be 4570 nM; in data set [2] it was 2530 nM; in data set [3], 5420 nM.

Turning to `CCOc1ccc(-c2cnoc2-c2cc(C)nc3ccccc23)cc1`, the IC50 in data set [1] is 14 nM; in data set [2] it was 18 nM; in data set [3], more than 800 nM. In addition, the Activity result in data set [4] was “Non-Toxic”. Further, the IC50 at 48 h in data set [5] is more than 710 nM.

`c1ccc2c(-c3[nH]nnc3-c3ccc4[nH]ccc4c3)ccnc2c1`: the IC50 in data set [1] turned out to be 178 nM; in data set [2] it was 188 nM; in data set [3] it was 211 nM.

With `COc1ccc(-c2cn[nH]c2-c2ccnc3ccccc23)cc1`, the IC50 in data set [1] was determined as 1020 nM; in data set [2] it was 199 nM; in data set [3] it was 958 nM.

As to `CC(C)Oc1ccc(-c2cn[nH]c2-c2ccnc3ccccc23)cc1`, the IC50 in data set [1] was more than 10000 nM; in data set [2], 4830 nM; in data set [3], more than 10000 nM.

In the case of `CC(C)Oc1ccc(-c2cnoc2-c2ccnc3ccccc23)cc1`, the IC50 in data set [1] is 1510 nM; in data set [2], 489 nM; in data set [3], 4500 nM.

For the compound `CCCOc1ccc(-c2cn[nH]c2-c2cc(C)nc3ccccc23)cc1`, the IC50 in data set [1] was more than 800 nM; in data set [2] it was 130 nM; in data set [3], 90 nM.

As for `CCOc1ccc(-c2cnoc2-c2ccnc3ccccc23)cc1`, the IC50 in data set [1] came out at 122 nM; in data set [2], 14 nM; in data set [3] it was 39 nM.

As for `c1ccc2c(-c3[nH]ncc3-c3ccc4c(c3)CCO4)ccnc2c1`, the IC50 in data set [1] was 10000 nM; in data set [2], more than 10000 nM; in data set [3] it was more than 10000 nM.

Regarding `COc1ccccc1-c1cn[nH]c1-c1cc(C)nc2ccccc12`, the IC50 in data set [1], in data set [2] and in data set [3] was more than 800 nM in each case.

For the compound `c1ccc2c(-c3[nH]nnc3-c3ccc4sccc4c3)ccnc2c1`, the 50% inhibitory concentration (IC50) in data set [1], in data set [2] and in data set [3] was more than 10000 nM each time.

As to `Cc1cccc(-c2nn[nH]c2-c2ccnc3ccccc23)c1`, the IC50 in data set [1], in data set [2] and in data set [3] was more than 10000 nM throughout.

For `Cc1cc(-c2oncc2-c2ccc(OC(C)C)cc2)c2ccccc2n1`, the IC50 in data set [1] amounted to 226 nM; in data set [2] it was 49 nM; in data set [3] it was 133 nM.

Consider `c1ccc2c(-c3oncc3-c3ccc4c(c3)CCO4)ccnc2c1`, for which the half-maximal inhibitory concentration (IC50) in data set [1] was 723 nM; in data set [2], 2120 nM; in data set [3], more than 10000 nM.

With `COc1ccccc1-c1cn[nH]c1-c1ccnc2ccccc12`, the IC50 in data set [1], in data set [2] and in data set [3] was more than 10000 nM throughout.

`COc1ccccc1-c1cnoc1-c1ccnc2ccccc12`: the 50% inhibitory concentration (IC50) in data set [1], in data set [2] and in data set [3] was more than 10000 nM each time.

Turning to `CCOc1ccc(-c2cn[nH]c2-c2cc(C)nc3ccccc23)cc1`, the IC50 was 65 nM in data set [1], 31 nM in data set [2] and 44 nM in data set [3]. Further, in data set [5], the IC50 at 48 h was more than 710 nM.

For the compound `COc1cccc(-c2[nH]nnc2-c2ccnc3ccccc23)c1`, the IC50 in data set [1], in data set [2] and in data set [3] was more than 10000 nM each time.

As to `COc1cccc(-c2cnoc2-c2cc(C)nc3ccccc23)c1`, the values for the IC50 in data set [1], in data set [2] and in data set [3] were 349 nM, 101 nM and 288 nM, respectively.

Consider `CCCOc1ccc(-c2cn[nH]c2-c2ccnc3ccccc23)cc1`, for which the figures for the IC50 in data set [1], in data set [2] and in data set [3] were 6410 nM, 875 nM and 6040 nM, respectively.

For `Cc1ccccc1-c1nn[nH]c1-c1ccnc2ccccc12`, the IC50 in data set [1], in data set [2] and in data set [3] was more than 10000 nM each time.

With `COc1ccc(-c2[nH]nnc2-c2ccnc3ccccc23)cc1`, the IC50 turned out to be 1350 nM in data set [1], 153 nM in data set [2] and 773 nM in data set [3].

Consider `CCCOc1ccc(-c2cnoc2-c2ccnc3ccccc23)cc1`, for which the results for the IC50 in data set [1], in data set [2] and in data set [3] were 714 nM, 435 nM and 603 nM, respectively.

Turning to `Cc1ccc(-c2nn[nH]c2-c2ccnc3ccccc23)cc1`, the IC50 was 1650 nM in data set [1], 5800 nM in data set [2] and 3680 nM in data set [3].

For the compound `CC(C)Oc1ccc(-c2nn[nH]c2-c2ccnc3ccccc23)cc1`, the IC50 in data set [1] is 244 nM; in data set [2] it was 3360 nM; in data set [3], 705 nM.

As for `CCOc1ccc(-c2cn[nH]c2-c2ccnc3ccccc23)cc1`, the IC50 in data set [1] was found to be 3170 nM; in data set [2] it was 249 nM; in data set [3] it was 437 nM.

As to `COc1ccccc1-c1cnoc1-c1cc(C)nc2ccccc12`, the IC50 is 7530 nM in data set [1], 1960 nM in data set [2] and 8580 nM in data set [3].

Regarding `COc1ccc(-c2nn[nH]c2-c2ccnc3ccccc23)cc1O`, the figures for the half-maximal inhibitory concentration (IC50) in data set [1], in data set [2] and in data set [3] were 21 nM, 32 nM and 24 nM, respectively.

Turning to `c1ccc2c(-c3[nH]nnc3-c3ccc4sc5ccccc5c4c3)ccnc2c1`, the IC50 in data set [1], in data set [2] and in data set [3] was more than 10000 nM in each case.

Turning to `CCCOc1ccc(-c2cnoc2-c2cc(C)nc3ccccc23)cc1`, the IC50 in data set [1] was more than 800 nM; in data set [2] it was 58 nM; in data set [3], more than 800 nM.

On to `COc1ccc(-c2cn[nH]c2-c2cc(C)nc3ccccc23)cc1`, for which the IC50 was 92 nM in data set [1], 39 nM in data set [2] and 68 nM in data set [3]. Besides, the IC50 at 48 h in data set [5] is more than 710 nM.

Take `Cc1cc(-c2[nH]ncc2-c2ccc3c(c2)CCO3)c2ccccc2n1`: the IC50 in data set [1] worked out at 491 nM; in data set [2] it was 3240 nM; in data set [3], 740 nM.

Turning to `COc1cccc(-c2cn[nH]c2-c2ccnc3ccccc23)c1`, the IC50 in data set [1] turned out to be 3190 nM; in data set [2] it was 1540 nM; in data set [3] it was 5530 nM.

As to `c1ccc2c(-c3[nH]nnc3-c3ccc4[nH]c5ccccc5c4c3)ccnc2c1`, the IC50 in data set [1], in data set [2] and in data set [3] was more than 10000 nM in each case.

`CCOc1ccc(-c2[nH]nnc2-c2ccnc3ccccc23)cc1`: the IC50 in data set [1] came out at 287 nM; in data set [2], 59 nM; in data set [3], 381 nM.

As for `c1ccc2c(-c3[nH]nnc3-c3ccc4occc4c3)ccnc2c1`, the half-inhibitory concentration (IC50) was determined as 3400 nM in data set [1], 8460 nM in data set [2] and 7760 nM in data set [3].

Turning to `c1ccc2c(-c3[nH]nnc3-c3ccc4oc5ccccc5c4c3)ccnc2c1`, the IC50 in data set [1], in data set [2] and in data set [3] was more than 10000 nM each time.

For the compound `COc1cccc(-c2cn[nH]c2-c2cc(C)nc3ccccc23)c1`, the IC50 in data set [1] came to 403 nM; in data set [2] it was 293 nM; in data set [3], 245 nM.

In the case of `Cc1cc(-c2oncc2-c2ccc3c(c2)CCO3)c2ccccc2n1`, the IC50 in data set [1] is more than 800 nM; in data set [2] it was 410 nM; in data set [3], more than 800 nM.

On to `c1cc(-c2nn[nH]c2-c2ccnc3ccccc23)c2occc2c1`, for which the IC50 in data set [1], in data set [2] and in data set [3] was more than 10000 nM each time.

Turning to `COc1ccc(-c2cnoc2-c2ccnc3ccccc23)cc1[N+](=O)[O-]`, the IC50 in data set [1] amounted to 194 nM; in data set [2], 28 nM; in data set [3] it was 2320 nM.

Consider `Cc1cc(-c2[nH]ncc2-c2ccc(OC(C)C)cc2)c2ccccc2n1`, for which the IC50 in data set [1] is more than 800 nM; in data set [2], 330 nM; in data set [3], more than 800 nM.

In the case of `COc1ccc(-c2cnoc2-c2cc(C)nc3ccccc23)cc1[N+](=O)[O-]`, the IC50 in data set [1] was determined as 103 nM; in data set [2], 65 nM; in data set [3] it was 54 nM.

`COc1ccc(-c2cnoc2-c2ccnc3ccccc23)cc1`: the IC50 was determined as 354 nM in data set [1], 24 nM in data set [2] and 982 nM in data set [3].

The values above are taken from ChEMBL document CHEMBL5608174, “Synthesis and biological evaluation of 4-phenyl-5-quinolinyl substituted isoxazole analogues as potent cytotoxic and tubulin polymerization inhibitors against ESCC” (Eur J Med Chem, 2024).
